Reference: patent US11858941B2, “Heterocyclic and heteroaryl compounds for treating Huntington's disease” (PTC THERAPEUTICS, INC., priority 2018, dated 2024)

The compounds below were run on Endogenous Huntingtin Protein (assay: Endogenous Huntingtin Protein Assay (Meso Scale Discovery ELISA-based electrochemiluminescence)). Details: MSD plates coated with MW1 (expanded polyglutamine) or MAB2166 capture antibody; lysates.
Format: cell-based
In short: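 MSD electrochemiluminescence sandwich ELISA: MW1 (expanded polyQ) or MAB2166 capture antibody at 1 μg/mL, samples incubated overnight at 4° C. Detection with rabbit monoclonal #5656S then SULFO-TAG anti-rabbit antibody, each 0.25 μg/mL for 1 h at room temperature.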

| SMILES | IC50 [µM] |
| --- | --- |
| CC(C)(C)NC1CC(n2nnc3cc(-c4ccc(-c5cn[nH]c5)cc4O)nnc32)C1 (stereo not shown) [Cpd 170, 2-{3-[3-(tert-butylamino)cyclobutyl]-3H-[1,2,3]triazolo[4,5-c]pyridazin-6-yl}-5-(1H-pyrazol-4-yl)phenol] | 1 to 3 |
| Cn1ccc(-c2ccc(-c3cc4nnn([C@H]5CC(C)(C)NC(C)(C)[C@H]5F)c4nn3)c(O)c2)cc1=O [Cpd 171, 4-(4-{3-[(3S,4S)-3-fluoro-2,2,6,6-tetramethylpiperidin-4-yl]-3H-[1,2,3]triazolo[4,5-c]pyridazin-6-yl}-3-hydroxyphenyl)-1-methylpyridin-2(1H)-one] | 0.1 to 0.5 |
| Cn1cnc(-c2ccc(-c3cc4nnn([C@H]5CC(C)(C)NC(C)(C)[C@H]5F)c4nn3)c(O)c2)cc1=O [Cpd 172, 6-(4-{3-[(3S,4S)-3-fluoro-2,2,6,6-tetramethylpiperidin-4-yl]-3H-[1,2,3]triazolo[4,5-c]pyridazin-6-yl}-3-hydroxyphenyl)-3-methylpyrimidin-4(3H)-one] | 0.1 to 0.5 |
| CC(C)(C)NC1CCC(n2nnc3cc(-c4ccc(-c5cn[nH]c5)cc4O)nnc32)C1 (stereo not shown) [Cpd 175, 2-{3-[3-(tert-butylamino)cyclopentyl]-3H-[1,2,3]triazolo[4,5-c]pyridazin-6-yl}-5-(1H-pyrazol-4-yl)phenol] | 0.5 to 1 |

Results, then the compound that gave them:

| IC50 [µM] | SMILES |
| --- | --- |
| ≤ 0.1 | CC1(C)C[C@H](n2nnc3cc(-c4ccc(-c5c[nH]nc5F)cc4O)nnc32)[C@H](F)C(C)(C)N1 [Cpd 173, 5-(3-fluoro-1H-pyrazol-4-yl)-2-{3-[(3S,4S)-3-fluoro-2,2,6,6-tetramethylpiperidin-4-yl]-3H-[1,2,3]triazolo[4,5-c]pyridazin-6-yl}phenol] |
| ≤ 0.1 | CC1(C)CC(n2ncc3cc(-c4ccc(-n5nccn5)cc4O)nnc32)CC(C)(C)N1 [Cpd 174, 2-[1-(2,2,6,6-tetramethylpiperidin-4-yl)-1H-pyrazolo[3,4-c]pyridazin-5-yl]-5-(2H-1,2,3-triazol-2-yl)phenol] |
| ≤ 0.1 | CC1(C)CC(n2ccc3cc(-c4ccc(-n5nccn5)cc4O)nnc32)CC(C)(C)N1 [Cpd 176, 2-[7-(2,2,6,6-tetramethylpiperidin-4-yl)-7H-pyrrolo[2,3-c]pyridazin-3-yl]-5-(2H-1,2,3-triazol-2-yl)phenol] |
